Laboratory results as given in PMC4935745, “Synthesis and stereochemical determination of an antiparasitic pseudo-aminal type monoterpene indole alkaloid” (Journal of Natural Medicines, 2016).
In brackets after ≈: the same amount, converted by molar mass. Where two headings read alike, the source gives them in different places.

Tests used:
Format in all cases: cell-based
[1] = tested on: Plasmodium falciparum (chloroquine-resistant K1 strain); assay: In vitro antimalarial activity, K1 strain; conditions: for Selectivity index (SI) M/K: MRC-5/K1; for IC50: Plasmodium falciparum, K1, chloroquine-resistant strain
Method: (§1) Naturally occurring and synthetic compounds were tested for antimalarial activity against Plasmodium falciparum parasites (chloroquine-resistant K1 strain and chloroquine-susceptible FCR3 strain) and for cytotoxicity (against human MCR-5 cells), in comparison with the first-line antimalarial artemisinin.

[2] = tested on: Plasmodium falciparum (chloroquine-susceptible FCR3 strain); assay: In vitro antimalarial activity, FCR3 strain; conditions: for Selectivity index (SI) M/F: MRC-5/FCR3; for IC50: Plasmodium falciparum, FCR3, chloroquine-sensitive strain, in vitro
Method: as §1

[3] = Cytotoxicity against human MRC-5 cells; conditions: human
Method: as §1

MRC-5 cells = assay: Cytotoxicity against human MRC-5 cells; conditions: human MRC-5 cells
Method: as §1

[4] = MRC-5 cells, human MRC-5 cells, read-out: Cytotoxicity MRC-5 IC50

Compound	Selectivity index (SI) M/K [1]	IC50 ([1]; in vitro) [µg/mL]	Selectivity index (SI) M/F [2]	IC50 [2] [µg/mL]	IC50 [3, 4] [µg/mL]	Antimalarial activity against chloroquine-resistant P. falciparum (in words) ([1]; K1 strain, in vitro)	Antimalarial activity K1 IC50 ([1]; chloroquine-resistant strain, in vitro) [µg/mL]	Cytotoxicity MRC-5 IC50 (MRC-5 cells) [µg/mL]	IC50 ([3]; Cytotoxicity MRC-5 IC50) [µg/mL]
C/C=C1/CNCC[C@@H]1[C@@](C)(O)c1cc2ccccc2[nH]1 (racemic) [(±)-(15S,16R)-37]	4.5	8.98 (≈ 33.2 µM)	<3.3	> 12.5	40.8 (≈ 151 µM)				
CC=C1CN2CCC1C(C)(O)c1[nH]c3ccccc3c1C2 (racemic) [Synthetic (±)-(15S*,16S*)-1, (±)-(15S*,16S*)-16-hydroxy-16,22-dihydroapparicine]		> 12.5			33.3 (≈ 118 µM)				
CC=C1CN2CCC1C(C)(O)c1[nH]c3ccccc3c1C2 (single isomer, unassigned; (+)) [Synthetic (+)-(15S,16R)-1]	5.7		6.1	8.37 (≈ 29.6 µM)		moderate/weak antimalarial activity	9.00	51.2	
C/C=C(/COC(=O)C(C)(C)C)[C@H](CCN=[N+]=[N-])[C@@](C)(O)c1cc2ccccc2n1CO[Si](C)(C)C(C)(C)C [(−)-(15S,16R)-32]		> 12.5		> 12.5					
C/C=C(/CO)[C@H](CCN=[N+]=[N-])[C@@](C)(O)c1cc2ccccc2[nH]1 [(−)-(15S,16R)-33]	2.3	7.58 (≈ 24.1 µM)	2.5	7.17 (≈ 22.8 µM)	17.8 (≈ 56.6 µM)				
C/C=C(/COc1ncccc1[N+](=O)[O-])[C@H](CCN=[N+]=[N-])[C@@](C)(O)c1cc2ccccc2[nH]1 [(−)-(15S,16R)-34]	>12.4	8.04 (≈ 18.4 µM)		> 12.5	> 100				
C/C=C1/C(=O)O[C@H](C)[C@H]1CCN=[N+]=[N-] [(−)-(15S,16R)-39]	5.8	9.38 (≈ 48 µM)	<4.3	> 12.5	54 (≈ 277 µM)				
C[C@@H]1CC[C@H]2[C@@H](C)C(=O)O[C@@H]3O[C@@]4(C)CC[C@@H]1[C@]32OO4 [Artemisinin, reference compound]	7528	0.006 (≈ 0.0213 µM)	7528	0.006 (≈ 0.0213 µM)					45.2 (≈ 160 µM)
